Measured values taken from patent US20250144131A1, “POLYSACCHARIDE COMPOUND WITH A DEFINED MOLECULAR STRUCTURE FOR THE TREATMENT OF PULMONARY FIBROSIS” (SHENZHEN YANDAI INVESTMENT CO., LTD, priority 2023, published 2025).
Marks after values point to notes of the source that are not given here.

Legend:
[1] = Mortality, survival time and body weight of H22-bearing mice; format: in vivo, C57 mice
Experimental: A homogenate suspension of H22 hepatoma solid tumors was injected subcutaneously under the axilla of 60 healthy male C57 mice to create a solid tumor model. Once all mouse tumors averaged a volume of about 180 mm^3, mice were randomized into groups based on tumor volume and were administered the respective drugs or drug solvents via oral gavage or intraperitoneal injection for 27 consecutive days. Longest and shortest diameters of tumors were measured every three days to calculate tumor volume, and mouse weights were recorded every three days. At the end of the experiment, tumors, spleens, and thymuses were harvested and weighed to calculate tumor, spleen, and thymus indices.

bone marrow cells = system: bone marrow cells; set-up: species or system C57 mice; settings: mouse, in vivo, 130 mg/kg
Experimental: (§1) LLC cells in logarithmic growth phase at 1×10^7/mL were inoculated at 0.2 mL into the right axilla of 10 purchased normal male C57 mice. Tumor growth was monitored, and tumor-bearing mice were prepared. Once the tumor volume in tumor-bearing mice exceeded 200 mm^3, the tumor tissue was aseptically harvested to prepare a tissue cell suspension. This was mixed at a 1:1 (V:V) ratio with culture medium to create a tumor tissue homogenate. This homogenate was injected into the right axilla of 60 male C57 mice at 0.2 mL per mouse. When the tumor volume in these tumor-bearing mice exceeded 100 mm^3, mice with well-grown tumors without ulceration were selected and randomized into groups based on tumor volume as follows: model control group, cisplatin group (4 mg/kg), Kanglaite soft capsule group (1,404 mg/kg), cisplatin+Kanglaite soft capsule group (4+1,404 mg/kg), cisplatin+GLP-4 low-dose group (4+130 mg/kg), and cisplatin+GLP-4 high-dose group (4+1,170 mg/kg), with 8 mice per group. Additionally, 8 mice were selected as a normal control group. The cisplatin group received intraperitoneal injections of cisplatin, and the other groups were administered their respective drug solutions by gavage (20 mL/kg) or intraperitoneal injection (10 mL/kg), once daily for 27 consecutive days. After the last dose, blood was collected from the orbital plexus to test blood WBC, RBC, liver and kidney function indicators (ALT, AST, BUN, CRE), and CD3^+, CD4^+, and CD8^+ levels. Bone marrow smears were examined, and spleens, thymuses, and tumors were weighed. Histopathological examinations were conducted on the tumor, spleen, stomach, and kidneys.

H22 cells = assay: Necrosis and apoptosis of H22 cells (GLP-4 combined with cisplatin); format: cell-based; set-up: unit not given here; settings: 48 h, GLP-4 2 mg/mL, cisplatin 5 μg/mL
Experimental: The culture medium was discarded, cells were washed with PBS and digested with 0.125% trypsin. After digestion, the reaction was stopped with medium, and cells were transferred to EP tubes for counting using a cell counter. […] 24 h later, once cells adhered, drugs were added. 48 h after drug administration, cells were digested with trypsin, washed with PBS, and recounted. The corresponding volume of staining solution was added based on cell count, then incubated for 30 min in an incubator. After incubation, cells were chilled to stop staining and maintain viability, followed by imaging using a confocal microscope.
Based on preliminary study results, the dosing concentration for Ganoderma lucidum polysaccharide GLP-4 was set at 2 mg/mL, and for cisplatin (DDP) at 5 μg/mL.

LLC tumors = assay: Histopathology (H&E) of tumor, spleen, stomach and kidney in LLC-bearing mice; format: in vivo, C57 mice; settings: cisplatin 4, Kanglaite 1404, GLP-4 low-dose 130 mg/kg
From the text: Histopathology examination: After the last dose, tissues from tumors, spleens, stomachs, and kidneys were collected for H&E staining to observe histopathological changes.

[2] = system: CD4+ and CD8+ lymphocyte subtypes; assay: Blood CD3+/CD4+ and CD3+/CD8+ by flow cytometry in LLC-bearing mice; format: in vivo, C57 mice; settings: blood after last dose, cisplatin 4, Kanglaite 1404, GLP-4 low-dose 130 mg/kg
Experimental: as §1, with “After the last dose, blood was collected from the orbital plexus to test blood WBC, RBC, liver and kidney function indicators (ALT, AST, BUN, CRE), and CD3^+, CD4^+, and CD8^+ levels. Bone marrow smears were examined, and spleens, thymuses, and tumors were weighed. Histopathological examinations were conducted on the tumor, spleen, stomach, and kidneys.” left out

[3] = system: Liver cancer (H22) cells, orthotopic; assay: Tumors in orthotopic H22-bearing mice by small animal in vivo imaging; set-up: species or system C57 mice; settings: for Tumor (in vivo imaging): Kanglaite soft capsule 1404 mg/kg
From the text: Liver cancer (H22) cells, labeled with Luc fluorescent marker at a concentration of 1×10^7 cells/mL, were initially inoculated into the peritoneal cavity of 8 male C57 mice. After the development of ascites, the ascitic fluid was aseptically extracted, washed with HBSS buffer, centrifuged to discard the supernatant, and stained with Trypan Blue, and cells in the ascitic fluid were counted under a microscope. The cell concentration was adjusted to […] with HBSS buffer and inoculated into the right hepatic region of 51 male C57 mice, at a volume of 10 μL per mouse, to prepare the orthotopic tumor-bearing mice. One week later, the liver tumor formation in mice was detected using a small animal in vivo imaging system. Based on tumor size, the mice were randomized into groups: model control group, cisplatin group (4 mg/kg), Kanglaite soft capsule group (1,404 mg/kg), cisplatin+Kanglaite soft capsule group (4+1,404 mg/kg), cisplatin+GLP-4 low-dose group (4+130 mg/kg), and cisplatin+GLP-4 high-dose group (4+1,170 mg/kg), with 6 mice per group. An additional 6 mice served as the normal control group. The normal control group and the model control group were administered pure water by oral gavage. The chemotherapy group received intraperitoneal injections of cisplatin, and the other groups were administered their respective drug solutions by oral gavage (20 mL/kg) or intraperitoneal injection (10 mL/kg), once daily for 14 consecutive days. After the last dose, blood was collected from the orbital plexus to test blood WBC, RBC, liver and kidney function indicators (ALT, AST, BUN, CRE), and CD3^+/CD4^+, CD3^+/CD8^+ ratios. The spleen, thymus, and tumors were weighed to calculate organ coefficients.
Tumor volume measurement: Tumor volume changes were measured weekly using small animal in vivo imaging technology.

In the case of `N.N.[Cl][Pt][Cl]` [Cisplatin, cisplatin], the Number of deaths ([1]; 8 per group, cisplatin 3, GLP-4 low-dose 50 mg/kg) is reported as 0, the Survival time ([1]; 27 days dosing, cisplatin 3, GLP-4 low-dose 50 mg/kg) is reported as 27 ± 0 days and the Weight ([1]; D0, cisplatin 3, GLP-4 low-dose 50 mg/kg) is reported as 22.8 ± 1^+ g. For the same compound, the Weight ([1]; D9, cisplatin 3, GLP-4 low-dose 50 mg/kg) was 22.2 ± 0.7^+ g, the Weight ([1]; D12, cisplatin 3, GLP-4 low-dose 50 mg/kg) was 21.9 ± 0.5^+ g and the Weight ([1]; D15, cisplatin 3, GLP-4 low-dose 50 mg/kg) was 21.3 ± 1*^+ g. For the same compound, the Mortality rate ([1]; cisplatin 3, GLP-4 low-dose 50 mg/kg) was 0%, the Lymphatic system (bone marrow cells) was 15.75 ± 3.44 and the Mononuclear cell system (bone marrow cells) was 2.88 ± 0.55. For the same compound, the Myeloid/erythroid ratio (bone marrow cells) was 3.68 ± 1.68, the Other cells (bone marrow cells) was 2.50 ± 2.01 and the Red cell system (bone marrow cells) was 22.75 ± 5.67. The “Apoptosis rate, Mean ± SD” value (H22 cells) was 10.9 ± 1.6, the “Necrosis rate, Mean ± SD” value (H22 cells) was 33.7 ± 8.2 and the “Total mortality rate, Mean ± SD” value (H22 cells) was 44.7 ± 9.5. It also gave an Apoptosis rate (H22 cells; single value 1) of 11.3, a Necrosis rate (H22 cells; single value 1) of 27.3 and a Total mortality rate (H22 cells; single value 1) of 38.7. It also gave an Apoptosis rate (H22 cells; single value 2) of 8.8, a Necrosis rate (H22 cells; single value 2) of 28.6 and a Total mortality rate (H22 cells; single value 2) of 37.3. The Apoptosis rate (H22 cells; single value 3) was 12.9, the Necrosis rate (H22 cells; single value 3) was 45.4 and the Total mortality rate (H22 cells; single value 3) was 58.2. For the same compound, the Tumor histopathology (LLC tumors) was “large areas of necrosis and hemorrhage were visible at the tumor center, with abundant tumor cells”, the “CD3+/CD4+” value [2] was 0.093 ± 0.025 and the “CD3+/CD8+” value [2] was 1.571 ± 0.406. For the same compound, the “Tumor (in vivo imaging)” value ([3]; W0, cisplatin 4 mg/kg) was 3756000 P/s/cm^2/sr, the “Tumor (in vivo imaging)” value ([3]; W1, cisplatin 4 mg/kg) was 12898500 P/s/cm^2/sr and the “Tumor (in vivo imaging)” value ([3]; W2, cisplatin 4 mg/kg) was 11871333 P/s/cm^2/sr. The “Tumors compared to the model control group (in vivo imaging)” value ([3]; cisplatin 4, Kanglaite 1404, GLP-4 low-dose 130 mg/kg) was “significantly decreased on W2”.
